# Data published in patent publication US11919965B2, “Methods of treating multiple myeloma with bispecific anti-BCMA x anti-CD3 antibodies” (Regeneron Pharmaceuticals, Inc., priority 2019, dated 2024).
# Like-named read-outs stand apart in the source and are kept apart here.
# Tests used:
# [1] = tested on: Jurkat/NFATLuc.3C7 reporter cells with HEK293 cells (BCMA negative); assay: Jurkat/NFATLuc reporter bioassay (T-cell activation); format: cell-based, human
# Procedure: (§1) Activity of the anti-BCMA×anti-CD3 bispecific antibodies were assessed in a Jurkat/NFATLuc reporter bioassay utilizing several cell lines with varying levels of BCMA surface expression. The Jurkat cells were engineered to express an NFAT-luciferase reporter (Jurkat/NFATLuc.3C7), and 50,000 Jurkat reporter cells were combined with 50,000 BCMA positive (Daudi, MM1-S, NCI-H929, OPM-2, RPMI-8226, MOLP-8, or Raji) or BCMA negative (HEK293) cells in Thermo Nunclon delta 96 well white microwell plates (Thermo Scientific, Cat #136102) in 50 ul of assay media (RPMI media with 10% FBS and 1% P/S/G). Three-fold serial dilutions of the BCMA×CD3 bispecific antibodies (mAb25441D or mAb25442D), or a bivalent anti-BCMA antibody (mAb21581) were immediately added in 50 uL of assay buffer. The plates were gently agitated and incubated in a 37° C., 5% CO2 incubator for 4-6 hours. NFAT-Luciferase activity was determined using Promega One-Glo (Cat #E6130) and a Perkin Elmer Envision plate reader. RLU were plotted in GraphPad Prism using a four-parameter logistic equation over a 12-point response curve to calculate EC50 values. The no antibody treatment condition for each dose-response curve is also included in the analysis as a continuation of the three-fold serial dilution and is represented as the lowest dose. The signal to noise (S:N) is determined by taking the ratio of the highest RLU on the curve to the lowest.
# [2] = tested on: Jurkat/NFATLuc.3C7 reporter cells with MM1-S cells (BCMA positive); assay: as above; format: cell-based, human
# Procedure: as §1
# [3] = tested on: Jurkat/NFATLuc.3C7 reporter cells with RPMI-8226 cells (BCMA positive); assay: as above; format: cell-based, human
# Procedure: as §1
# [4] = tested on: Jurkat/NFATLuc.3C7 reporter cells with Raji cells (BCMA positive); assay: as above; format: cell-based, human
# Procedure: as §1
# [5] = tested on: primary multiple myeloma blast cells; assay: FACS cytotoxicity assay, autologous T cell-mediated killing of primary multiple myeloma blast cells; format: cell-based, human; conditions: for EC50: read-out: MM Lysis EC50
# Procedure: In order to monitor the specific killing of multiple myeloma cells by flow cytometry, bone marrow mononuclear cells (BMMC) from multiple myeloma patients were plated on human stromal cells (HS5) and rested overnight at 37 C. Separately, matching patient peripheral blood mononuclear cells (PBMC) were thawed and cultured in supplemented RPMI media at 1×10^6 cells/mL overnight at 37° C. in order to enrich for lymphocytes by depleting adherent cells. The next day, BMMC were co-incubated with adherent cell-depleted naïve PBMC on stromal cells (HS5) and a serial 10× dilution of BCMA×CD3 bispecific or 1-arm CD3 isotype control (starting concentration 66.7 nM) at 37° C. Cells were removed from cell culture plates at day 3, 4 or 7 and analyzed by FACS. For the assessment of specificity of killing, multiple myeloma cells were gated as single, live, CD90 negative (to exclude stromal cells), CD2 negative, CD56 positive. CD45 was low on multiple myeloma cells in most samples except MM455. Percent of live target cells was reported for the calculation of adjusted survival as follows: Adjusted survival=(R1/R2)*100, where R1=% live target cells in the presence of antibody, and R2=% live target cells in the absence of test antibody.
# T cells were gated as CD2 positive, CD56 negative and either CD4 or CD8 positive. T cell activation was reported as the percent of CD25+CD4 or CD8 T cells out of total CD4 or CD8 T cells.
# [6] = tested on: BCMA-expressing NCI-H929 multiple myeloma tumors; assay: Xenogenic tumor model, NCI-H929 + human PBMC s.c. in NSG mice, dose response, treatment from implantation (Example 11); format: in vivo, mouse
# Procedure: To determine the in vivo efficacy of anti-BCMA×anti-CD3 bispecific antibodies (Abs), a xenogenic tumor study was performed. Immunodeficient NOD.Cg-Prkdc^ScidII2rg^tm1Wjl/SzJ (NSG) mice were subcutaneously implanted with a mixture of 10×10^6 BCMA-expressing NCI-H929 human multiple myeloma tumor cells and 0.5×10^6 human peripheral blood mononuclear cells (PBMC) isolated from a normal, healthy donor. […] The mice were administered these Abs twice per week for a total of seven doses, and tumor growth was assessed over 60 days. While BCMA+NCI-H929 tumors grew similarly in the vehicle- and CD3-binding control-treated mice, both anti-BCMA×anti-CD3 Abs that were tested prevented the growth of tumors in a dose-dependent manner in vivo.
# Implantation and measurement of xenogenic tumors: NSG mice were subcutaneously implanted with a mixture of 10×10^6 BCMA-expressing NCI-H929 multiple myeloma cells and 0.5×10^6 PBMC derived from a normal, healthy donor. […] The mice were administered Abs twice per week for a total of seven doses. Tumor growth was measured with calipers twice per week for the duration of the experiment.
# Calculation of xenogenic tumor growth and inhibition: In order to determine tumor volume by external caliper, the greatest longitudinal diameter (length in mm) and the greatest transverse diameter (width in mm) were determined. Tumor volumes based on caliper measurements were calculated by the formula: Volume (mm^3)=(length× width^2)/2.
substance,measurement,setting,value
"REGN5459: anti-BCMA×anti-CD3 bispecific antibody: mAb21581 BCMA heavy chain, mAb7221G20 CD3 heavy chain and common light chain; SEQ ID NOs 126, 128, 129",S:N (highest RLU to lowest),[1],1
same,S:N (highest RLU to lowest),[2],120
same,S:N (highest RLU to lowest),[3],42
same,S:N (highest RLU to lowest),[4],78
same,EC50,"[5]; Sample MM2, E:T 1.4, 7 days",7.24 nM
same,% MM lysis at 66 nM,"[5]; Sample MM2, newly diagnosed, E:T 1.4, 7 days",85%
same,EC50,"[5]; Sample MM369, E:T 0.3, 3 days",0.496 nM
same,% MM lysis at 66 nM,"[5]; Sample MM369, newly diagnosed, E:T 0.3, 3 days",94%
same,EC50,"[5]; Sample MM453, E:T 2.4, 3 days",1.19 nM
same,% MM lysis at 66 nM,"[5]; Sample MM453, newly diagnosed, E:T 2.4, 3 days",80%
same,EC50,"[5]; Sample MM455, E:T 0.4, 3 days",79.4 nM
same,% MM lysis at 66 nM,"[5]; Sample MM455, progression, treated, E:T 0.4, 3 days",52%
same,Average Tumor Size (mm3) ± SEM on Day 4,[6]; 0.04 mg/kg,33.0 ± 4.4 mm3
same,Average Tumor Size (mm3) ± SEM on Day 7,[6]; 0.04 mg/kg,8.4 ± 4.0 mm3
same,Average Tumor Size (mm3) ± SEM on Day 12,[6]; 0.04 mg/kg,0 ± 0 mm3
same,Average Tumor Size (mm3) ± SEM on Day 19,[6]; 0.04 mg/kg,23.1± 23.1 mm3
same,Average Tumor Size (mm3) ± SEM on Day 22,[6]; 0.04 mg/kg,69.5 ± 69.5 mm3
same,Average Tumor Size (mm3) ± SEM on Day 26,[6]; 0.04 mg/kg,156.7 ± 156.7 mm3
same,Average Tumor Size (mm3) ± SEM on Day 29,[6]; 0.04 mg/kg,226.6 ± 226.6 mm3
same,Average Tumor Size (mm3) ± SEM on Day 4,[6]; 0.4 mg/kg,19.6 ± 4.4 mm3
same,Average Tumor Size (mm3) ± SEM on Day 12,[6]; 0.4 mg/kg,0 ± 0 mm3
same,Average Tumor Size (mm3) ± SEM on Day 15,[6]; 0.4 mg/kg,0 ± 0 mm3
same,Average Tumor Size (mm3) ± SEM on Day 19,[6]; 0.4 mg/kg,0 ± 0 mm3
same,Average Tumor Size (mm3) ± SEM on Day 22,[6]; 0.4 mg/kg,0 ± 0 mm3
same,Average Tumor Size (mm3) ± SEM on Day 26,[6]; 0.4 mg/kg,0 ± 0 mm3
same,Average Tumor Size (mm3) ± SEM on Day 29,[6]; 0.4 mg/kg,0 ± 0 mm3
same,Average Tumor Size (mm3) ± SEM on Day 34,[6]; 0.4 mg/kg,0 ± 0 mm3
same,Average Tumor Size (mm3) ± SEM on Day 39,[6]; 0.4 mg/kg,0 ± 0 mm3
same,Average Tumor Size (mm3) ± SEM on Day 42,[6]; 0.4 mg/kg,0 ± 0 mm3
same,Average Tumor Size (mm3) ± SEM on Day 46,[6]; 0.4 mg/kg,0 ± 0 mm3
same,Average Tumor Size (mm3) ± SEM on Day 55,[6]; 0.4 mg/kg,0 ± 0 mm3
same,Average Tumor Size (mm3) ± SEM on Day 60,[6]; 0.4 mg/kg,0 ± 0 mm3
same,Average Tumor Size (mm3) ± SEM on Day 4,[6]; 4 mg/kg,21.8 ± 3.4 mm3
same,Average Tumor Size (mm3) ± SEM on Day 7,[6]; 4 mg/kg,8.0 ± 4.3 mm3
same,Average Tumor Size (mm3) ± SEM on Day 12,[6]; 4 mg/kg,1.7 ± 1.7 mm3
same,Average Tumor Size (mm3) ± SEM on Day 15,[6]; 4 mg/kg,0 ± 0 mm3
same,Average Tumor Size (mm3) ± SEM on Day 19,[6]; 4 mg/kg,0 ± 0 mm3
same,Average Tumor Size (mm3) ± SEM on Day 22,[6]; 4 mg/kg,0 ± 0 mm3
same,Average Tumor Size (mm3) ± SEM on Day 26,[6]; 4 mg/kg,0 ± 0 mm3
same,Average Tumor Size (mm3) ± SEM on Day 29,[6]; 4 mg/kg,0 ± 0 mm3
same,Average Tumor Size (mm3) ± SEM on Day 34,[6]; 4 mg/kg,0 ± 0 mm3
same,Average Tumor Size (mm3) ± SEM on Day 39,[6]; 4 mg/kg,0 ± 0 mm3
same,Average Tumor Size (mm3) ± SEM on Day 42,[6]; 4 mg/kg,0 ± 0 mm3
same,Average Tumor Size (mm3) ± SEM on Day 46,[6]; 4 mg/kg,0 ± 0 mm3
same,Average Tumor Size (mm3) ± SEM on Day 55,[6]; 4 mg/kg,0 ± 0 mm3
same,Average Tumor Size (mm3) ± SEM on Day 60,[6]; 4 mg/kg,0 ± 0 mm3
